This note sets out measurements from BindingDB's records for doi:10.1021/jm050513m (The University of Texas At Houston, 2005).

Square brackets hold non-standard residues; d marks the D form. Peptide text beside a SMILES is read from it. * marks the point of attachment. ξ: configuration not given here. pY = N[C@@H](Cc1ccc(OP(=O)(O)O)cc1)C(=O)O; Dip = N[C@H](C(=O)O)C(c1ccccc1)c1ccccc1; NH(1S-phenylethyl) = C[C@H](N*)c1ccccc1; Hydrocinnamoyl = O=C(CCc1ccccc1)*; NMeThr(3ξ) = CN[C@H](C(=O)O)C(C)O; Cha = N[C@@H](CC1CCCCC1)C(=O)O; Ile(3ξ) = CCC(C)[C@H](N)C(=O)O; NMeL = CN[C@@H](CC(C)C)C(=O)O; Thr(3ξ) = CC(O)[C@H](N)C(=O)O; αMeP = C[C@@]1(C(=O)O)CCCN1; Pip = O=C(O)[C@@H]1CCCCN1; Nle = CCCC[C@H](N)C(=O)O; Piperidide = C1CCN(*)CC1; Aze = O=C(O)[C@@H]1CCN1; Propionyl = CCC(=O)*; Bz = O=C(c1ccccc1)* Where only a bound is given, the exact number is not on record here.

The target of the first test is Signal transducer and activator of transcription 3 (Mus musculus, UniProt P42227). As to the kind of experiment: Fluorescence Polarization Assay.
Sequence of Signal transducer and activator of transcription 3 (P42227 whole entry): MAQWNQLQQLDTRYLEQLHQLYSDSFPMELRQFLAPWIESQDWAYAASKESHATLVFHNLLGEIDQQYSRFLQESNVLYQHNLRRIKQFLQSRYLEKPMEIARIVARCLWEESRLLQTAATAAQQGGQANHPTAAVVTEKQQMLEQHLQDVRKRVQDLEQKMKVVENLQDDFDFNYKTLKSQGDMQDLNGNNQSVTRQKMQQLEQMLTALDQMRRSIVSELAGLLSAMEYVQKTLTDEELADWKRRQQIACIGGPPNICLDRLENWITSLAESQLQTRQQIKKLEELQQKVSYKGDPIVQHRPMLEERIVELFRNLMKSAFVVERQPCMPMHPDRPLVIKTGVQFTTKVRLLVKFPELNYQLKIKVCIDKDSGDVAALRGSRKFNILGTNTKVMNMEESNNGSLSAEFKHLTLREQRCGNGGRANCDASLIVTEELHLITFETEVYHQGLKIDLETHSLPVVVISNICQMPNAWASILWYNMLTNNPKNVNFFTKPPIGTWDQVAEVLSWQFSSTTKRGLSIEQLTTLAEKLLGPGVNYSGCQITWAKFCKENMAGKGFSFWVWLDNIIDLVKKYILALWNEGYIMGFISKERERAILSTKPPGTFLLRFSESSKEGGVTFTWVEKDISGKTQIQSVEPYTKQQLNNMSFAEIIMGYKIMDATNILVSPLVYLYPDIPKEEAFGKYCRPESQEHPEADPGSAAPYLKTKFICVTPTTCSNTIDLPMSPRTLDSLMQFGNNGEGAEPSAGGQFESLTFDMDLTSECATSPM
Settings: not given
The protocol: Fluorescence polarization (FP) binding assay is utilizing the intrinsic property of the fluorescent probe, which will have low polarization value when free in solution. On binding to a target, the polarization of the probe will increase. Reaction mixtures of full length STAT3 alpha and the probe were placed in wells of a 96-well microtiter plate. The test peptide solution was added to each well. Fluorescence polarization was then read in a Tecan Polarian plate reader. The IC50 values were obtained from nonlinear regression analysis in the one-site competition mode. Peptides were assayed three times using three separate Stat3-probe preparations. IC50 values are reported as the mean of three IC50 values +/- the standard deviation.
In turn, `CC(=O)N[C@@H](Cc1ccc(OP(=O)(O)O)cc1)C(=O)N[C@@H](CC(C)C)C(=O)N1CCC[C@H]1C(=O)N[C@@H](CCC(N)=O)C(=O)N[C@@H](C)c1ccccc1` [4-[(2S)-2-{[(2S)-1-[(2S)-2-{[(1S)-3-carbamoyl-1-{[(1S)-1-phenylethyl]carbamoyl}propyl]carbamoyl}pyrrolidin-1-yl]-4-methyl-1-oxopentan-2-yl]carbamoyl}-2-acetamidoethyl]phenoxyphosphonic acid] (Ac-[pY]LPQ-{NH(1S-phenylethyl)}) came in with an IC50 of 0.596 µM.
In turn, `CC(=O)N[C@@H](Cc1ccc(OP(=O)(O)O)cc1)C(=O)N[C@@H](CC(C)C)C(=O)N1CCC[C@H]1C(=O)N[C@@H](CCC(N)=O)C(=O)N(C)[C@H](C(N)=O)C(C)O` (stereo partly drawn) [4-[(2S)-2-{[(2S)-1-[(2S)-2-{[(1S)-3-carbamoyl-1-{[(1S,2S)-1-carbamoyl-2-hydroxypropyl](methyl)carbamoyl}propyl]carbamoyl}pyrrolidin-1-yl]-4-methyl-1-oxopentan-2-yl]carbamoyl}-2-acetamidoethyl]phenoxyphosphonic acid] (Ac-[pY]LPQ[NMeThr(3ξ)]-NH2) displayed an IC50 of 1.22 µM.
Same read-out and setting: the result for `CC(=O)N[C@@H](Cc1ccc(OP(=O)(O)O)cc1)C(=O)N[C@@H](CC(C)C)C(=O)N1CCC[C@H]1C(=O)N[C@@H](CCC(N)=O)C(=O)N1CCCCC1` [4-[(2S)-2-{[(2S)-1-[(2S)-2-{[(2S)-4-carbamoyl-1-oxo-1-(piperidin-1-yl)butan-2-yl]carbamoyl}pyrrolidin-1-yl]-4-methyl-1-oxopentan-2-yl]carbamoyl}-2-acetamidoethyl]phenoxyphosphonic acid] (Ac-[pY]LPQ-Piperidide) reads 7 µM.

The same test, now with this note: pH 7.5; 22 °C.
On to `CCC(C)[C@H](NC(=O)[C@H](Cc1ccc(OP(=O)(O)O)cc1)NC(C)=O)C(=O)N1CCC[C@H]1C(=O)N[C@@H](CCC(N)=O)C(=O)N[C@H](C(N)=O)C(C)O` (stereo partly drawn) [4-[(2S)-2-{[(2S)-1-[(2S)-2-{[(1S)-3-carbamoyl-1-{[(1S)-1-carbamoyl-2-hydroxypropyl]carbamoyl}propyl]carbamoyl}pyrrolidin-1-yl]-3-methyl-1-oxopentan-2-yl]carbamoyl}-2-acetamidoethyl]phenoxyphosphonic acid] (Ac-[pY][Ile(3ξ)]PQ[Thr(3ξ)]-NH2), for which inhibition was half-maximal at 1.07 µM (IC50).
Still for that read-out and setting: the result for `CC(=O)N[C@@H](Cc1ccc(OP(=O)(O)O)cc1)C(=O)N[C@@H](CC(C)C)C(=O)N1CCC[C@@]1(C)C(=O)N[C@@H](CCC(N)=O)C(=O)N[C@H](C(N)=O)C(C)O` (stereo partly drawn) [4-[(2S)-2-{[(2S)-1-[(2S)-2-{[(1S)-3-carbamoyl-1-{[(1S,2S)-1-carbamoyl-2-hydroxypropyl]carbamoyl}propyl]carbamoyl}-2-methylpyrrolidin-1-yl]-4-methyl-1-oxopentan-2-yl]carbamoyl}-2-acetamidoethyl]phenoxyphosphonic acid] (Ac-[pY]L[αMeP]Q[Thr(3ξ)]-NH2) reads 1.87 µM; that for `CC(=O)N[C@@H](Cc1ccc(OP(=O)(O)O)cc1)C(=O)N[C@@H](CC(C)C)C(=O)N1CC[C@H]1C(=O)N[C@@H](CCC(N)=O)C(=O)N[C@H](C(N)=O)C(C)O` (stereo partly drawn) [4-[(2S)-2-{[(2S)-1-[(2S)-2-{[(1S)-3-carbamoyl-1-{[(1S,2S)-1-carbamoyl-2-hydroxypropyl]carbamoyl}propyl]carbamoyl}azetidin-1-yl]-4-methyl-1-oxopentan-2-yl]carbamoyl}-2-acetamidoethyl]phenoxyphosphonic acid] (Ac-[pY]L[Aze]Q[Thr(3ξ)]-NH2), 1.66 µM.
On the same count and under the same terms, the result for `CC(=O)N[C@@H](Cc1ccc(OP(=O)(O)O)cc1)C(=O)N[C@@H](CC(C)C)C(=O)N1CCCC[C@H]1C(=O)N[C@@H](CCC(N)=O)C(=O)N[C@H](C(N)=O)C(C)O` (stereo partly drawn) [4-[(2S)-2-{[(2S)-1-[(2S)-2-{[(1S)-3-carbamoyl-1-{[(1S,2S)-1-carbamoyl-2-hydroxypropyl]carbamoyl}propyl]carbamoyl}piperidin-1-yl]-4-methyl-1-oxopentan-2-yl]carbamoyl}-2-acetamidoethyl]phenoxyphosphonic acid] (Ac-[pY]L[Pip]Q[Thr(3ξ)]-NH2) reads 1.24 µM; that for `CC(=O)N[C@@H](Cc1ccc(OP(=O)(O)O)cc1)C(=O)N[C@H](C(=O)N1CCC[C@H]1C(=O)N[C@@H](CCC(N)=O)C(=O)N[C@H](C(N)=O)C(C)O)C(c1ccccc1)c1ccccc1` (stereo partly drawn) [4-[(2S)-2-{[(2S)-1-[(2S)-2-{[(1S)-3-carbamoyl-1-{[(1S,2S)-1-carbamoyl-2-hydroxypropyl]carbamoyl}propyl]carbamoyl}pyrrolidin-1-yl]-1-oxo-3,3-diphenylpropan-2-yl]carbamoyl}-2-acetamidoethyl]phenoxyphosphonic acid] (Ac-[pY][Dip]PQ[Thr(3ξ)]-NH2), over 100 µM; that for `CC(=O)N[C@@H](Cc1ccc(OP(=O)(O)O)cc1)C(=O)N[C@@H](Cc1ccccc1)C(=O)N1CCC[C@H]1C(=O)N[C@@H](CCC(N)=O)C(=O)N[C@H](C(N)=O)C(C)O` (stereo partly drawn) [4-[(2S)-2-{[(2S)-1-[(2S)-2-{[(1S)-3-carbamoyl-1-{[(1S,2S)-1-carbamoyl-2-hydroxypropyl]carbamoyl}propyl]carbamoyl}pyrrolidin-1-yl]-1-oxo-3-phenylpropan-2-yl]carbamoyl}-2-acetamidoethyl]phenoxyphosphonic acid] (Ac-[pY]FPQ[Thr(3ξ)]-NH2), 1.89 µM.
`CCCC[C@H](NC(=O)[C@H](Cc1ccc(OP(=O)(O)O)cc1)NC(C)=O)C(=O)N1CCC[C@H]1C(=O)N[C@@H](CCC(N)=O)C(=O)N[C@H](C(N)=O)C(C)O` (stereo partly drawn) [4-[(2S)-2-{[(2S)-1-[(2S)-2-{[(1S)-3-carbamoyl-1-{[(1S,2S)-1-carbamoyl-2-hydroxypropyl]carbamoyl}propyl]carbamoyl}pyrrolidin-1-yl]-1-oxohexan-2-yl]carbamoyl}-2-acetamidoethyl]phenoxyphosphonic acid] (Ac-[pY][Nle]PQ[Thr(3ξ)]-NH2) yielded a 50% inhibitory concentration (IC50) of 0.717 µM.
Same read-out and setting: with `CC(=O)N[C@@H](Cc1ccc(OP(=O)(O)O)cc1)C(=O)N[C@@H](CC1CCCCC1)C(=O)N1CCC[C@H]1C(=O)N[C@@H](CCC(N)=O)C(=O)N[C@H](C(N)=O)C(C)O` (stereo partly drawn) [4-[(2S)-2-{[(2S)-1-[(2S)-2-{[(1S)-3-carbamoyl-1-{[(1S,2S)-1-carbamoyl-2-hydroxypropyl]carbamoyl}propyl]carbamoyl}pyrrolidin-1-yl]-3-cyclohexyl-1-oxopropan-2-yl]carbamoyl}-2-acetamidoethyl]phenoxyphosphonic acid] (Ac-[pY][Cha]PQ[Thr(3ξ)]-NH2) the figure was 0.91 µM.
In turn, `CC(=O)N[C@@H](Cc1ccc(OP(=O)(O)O)cc1)C(=O)N[C@H](C(=O)N1CCC[C@H]1C(=O)N[C@@H](CCC(N)=O)C(=O)N[C@H](C(N)=O)C(C)O)C(C)C` (stereo partly drawn) [4-[(2S)-2-{[(2S)-1-[(2S)-2-{[(1S)-3-carbamoyl-1-{[(1S,2S)-1-carbamoyl-2-hydroxypropyl]carbamoyl}propyl]carbamoyl}pyrrolidin-1-yl]-3-methyl-1-oxobutan-2-yl]carbamoyl}-2-acetamidoethyl]phenoxyphosphonic acid] (Ac-[pY]VPQ[Thr(3ξ)]-NH2) registered an IC50 of 1.54 µM.
Still for that read-out and setting: the result for `CC(=O)N[C@@H](Cc1ccc(OP(=O)(O)O)cc1)C(=O)N(C)[C@@H](CC(C)C)C(=O)N1CCC[C@H]1C(=O)N[C@@H](CCC(N)=O)C(=O)N[C@H](C(N)=O)C(C)O` (stereo partly drawn) [4-[(2S)-2-{[(2S)-1-[(2S)-2-{[(1S)-3-carbamoyl-1-{[(1S,2S)-1-carbamoyl-2-hydroxypropyl]carbamoyl}propyl]carbamoyl}pyrrolidin-1-yl]-4-methyl-1-oxopentan-2-yl](methyl)carbamoyl}-2-acetamidoethyl]phenoxyphosphonic acid] (Ac-[pY][NMeL]PQ[Thr(3ξ)]-NH2) reads over 100 µM; that for `CC(C)C[C@H](NC(=O)[C@H](Cc1ccc(OP(=O)(O)O)cc1)NC(=O)CCc1ccccc1)C(=O)N1CCC[C@H]1C(=O)N[C@@H](CCC(N)=O)C(=O)N[C@H](C(N)=O)C(C)O` (stereo partly drawn) [4-[(2S)-2-{[(2S)-1-[(2S)-2-{[(1S)-3-carbamoyl-1-{[(1S,2S)-1-carbamoyl-2-hydroxypropyl]carbamoyl}propyl]carbamoyl}pyrrolidin-1-yl]-4-methyl-1-oxopentan-2-yl]carbamoyl}-2-(3-phenylpropanamido)ethyl]phenoxyphosphonic acid] (Hydrocinnamoyl-[pY]LPQ[Thr(3ξ)]-NH2), 0.276 µM.
`CC(C)C[C@H](NC(=O)[C@H](Cc1ccc(OP(=O)(O)O)cc1)NC(=O)c1ccccc1)C(=O)N1CCC[C@H]1C(=O)N[C@@H](CCC(N)=O)C(=O)N[C@H](C(N)=O)C(C)O` (stereo partly drawn) [4-[(2S)-2-{[(2S)-1-[(2S)-2-{[(1S)-3-carbamoyl-1-{[(1S,2S)-1-carbamoyl-2-hydroxypropyl]carbamoyl}propyl]carbamoyl}pyrrolidin-1-yl]-4-methyl-1-oxopentan-2-yl]carbamoyl}-2-(phenylformamido)ethyl]phenoxyphosphonic acid] (Bz-[pY]LPQ[Thr(3ξ)]-NH2) came in with an IC50 of 0.814 µM.
On to `CC(=O)N[C@@H](Cc1ccc(OP(=O)(O)O)cc1)C(=O)N[C@@H](CC(C)C)C(=O)N1CCC[C@H]1C(=O)N[C@@H](CCC(N)=O)C(=O)N[C@H](C(N)=O)C(C)O` (stereo partly drawn) [4-[(2S)-2-{[(2S)-1-[(2S)-2-{[(1S)-3-carbamoyl-1-{[(1S,2S)-1-carbamoyl-2-hydroxypropyl]carbamoyl}propyl]carbamoyl}pyrrolidin-1-yl]-4-methyl-1-oxopentan-2-yl]carbamoyl}-2-acetamidoethyl]phenoxyphosphonic acid], for which the IC50 worked out at 0.739 µM.
On the same count and under the same terms, the result for `CCC(=O)N[C@@H](Cc1ccc(OP(=O)(O)O)cc1)C(=O)N[C@@H](CC(C)C)C(=O)N1CCC[C@H]1C(=O)N[C@@H](CCC(N)=O)C(=O)N[C@H](C(N)=O)C(C)O` (stereo partly drawn) [4-[(2S)-2-{[(2S)-1-[(2S)-2-{[(1S)-3-carbamoyl-1-{[(1S,2S)-1-carbamoyl-2-hydroxypropyl]carbamoyl}propyl]carbamoyl}pyrrolidin-1-yl]-4-methyl-1-oxopentan-2-yl]carbamoyl}-2-propanamidoethyl]phenoxyphosphonic acid] (Propionyl-[pY]LPQ[Thr(3ξ)]-NH2) reads 0.497 µM.
